Data taken from patent publication US7998987B2, “Inhibitors of c-Met and uses thereof” (Vertex Pharmaceuticals Incorporated, priority 2005, dated 2011).
Where two headings read alike, the source gives them in different places.

Target: c-Met (Homo sapiens, UniProt P08581)
Assay: Ki determination for the inhibition of c-Met kinase activity (standard coupled enzyme system)
Format: biochemical
Details: coupled enzyme system, 200 μM ATP, 80 nM c-Met, 30° C., read-out: c-Met Ki
Procedure, shortened: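 Continuous coupled-enzyme (PK/LDH, NADH depletion) assay with 80 nM c-Met, 200 μM ATP and 10 μM polyGluTyr in 100 mM HEPES pH 7.5, 10 mM MgCl2, 1.5% DMSO at 30 °C.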

Chain of c-Met (P08581 25-1390): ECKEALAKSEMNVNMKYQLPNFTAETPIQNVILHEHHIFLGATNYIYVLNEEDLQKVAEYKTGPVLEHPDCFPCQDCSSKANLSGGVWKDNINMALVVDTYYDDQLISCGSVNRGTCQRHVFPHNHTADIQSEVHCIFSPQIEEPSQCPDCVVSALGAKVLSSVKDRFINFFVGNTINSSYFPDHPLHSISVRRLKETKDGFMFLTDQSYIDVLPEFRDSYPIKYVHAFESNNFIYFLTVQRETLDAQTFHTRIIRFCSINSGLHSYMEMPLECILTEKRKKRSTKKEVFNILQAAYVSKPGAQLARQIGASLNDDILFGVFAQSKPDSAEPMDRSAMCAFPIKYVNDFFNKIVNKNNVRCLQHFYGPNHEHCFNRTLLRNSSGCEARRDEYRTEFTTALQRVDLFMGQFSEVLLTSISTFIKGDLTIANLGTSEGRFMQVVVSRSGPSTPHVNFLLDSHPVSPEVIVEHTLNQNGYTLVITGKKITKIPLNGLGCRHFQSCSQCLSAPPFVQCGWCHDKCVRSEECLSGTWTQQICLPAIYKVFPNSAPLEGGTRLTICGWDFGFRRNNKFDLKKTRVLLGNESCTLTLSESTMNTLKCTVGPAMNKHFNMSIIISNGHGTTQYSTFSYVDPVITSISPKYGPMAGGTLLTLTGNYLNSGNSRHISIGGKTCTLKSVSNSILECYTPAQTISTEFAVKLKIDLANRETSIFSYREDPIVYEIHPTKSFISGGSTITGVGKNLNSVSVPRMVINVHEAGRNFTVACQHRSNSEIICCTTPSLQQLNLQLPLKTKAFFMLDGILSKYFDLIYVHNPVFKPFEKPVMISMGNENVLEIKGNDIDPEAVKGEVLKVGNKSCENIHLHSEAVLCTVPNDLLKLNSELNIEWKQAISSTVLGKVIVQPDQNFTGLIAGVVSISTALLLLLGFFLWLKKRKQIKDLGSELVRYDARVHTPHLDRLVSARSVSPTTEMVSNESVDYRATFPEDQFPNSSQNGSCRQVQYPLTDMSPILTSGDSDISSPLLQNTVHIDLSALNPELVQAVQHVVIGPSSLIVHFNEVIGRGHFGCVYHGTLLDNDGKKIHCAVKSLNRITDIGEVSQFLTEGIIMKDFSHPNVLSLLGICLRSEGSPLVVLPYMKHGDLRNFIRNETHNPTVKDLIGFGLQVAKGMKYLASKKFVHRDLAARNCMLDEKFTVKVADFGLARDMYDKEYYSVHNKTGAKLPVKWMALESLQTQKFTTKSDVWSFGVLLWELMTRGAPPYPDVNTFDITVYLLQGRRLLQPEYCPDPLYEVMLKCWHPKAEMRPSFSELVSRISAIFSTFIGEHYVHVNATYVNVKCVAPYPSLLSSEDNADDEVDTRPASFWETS

Ki (10 μM polyGluTyr) [nM]	Ki [nM]	Structure (SMILES)
	< 100	C[C@@H](c1ccc(O)cc1)c1nnc2ccc(Nc3ccnc(Cl)c3)nn12 [Compound 506]
	100 to 2000	NC(=O)c1ccc(OCc2nnc3ccc(Nc4cccc(Cl)c4)nn23)cc1 [Compound 470]
	100 to 2000	NC(=O)c1ccc(Cc2nnc3ccc(Nc4cccc(Cl)c4)nn23)cc1 [Compound 494]
	> 2000	Clc1cccc(Nc2ccc3nnc(CCc4ccncc4)n3n2)c1 [Compound 394]
	> 2000	O=C(Nc1ccc2nnc(Cc3ccc(O)cc3)n2n1)c1cccc(Cl)c1 [Compound 398]
	100 to 2000	CC1=Nn2c(Cc3ccc(O)cc3)nnc2SC1 [Compound 542]
	> 2000	Oc1cccc(CCc2nnc3ccc(Nc4cccc(Cl)c4)nn23)c1 [Compound 441]
	100 to 2000	C[C@@H](c1ccc(O)cc1)c1nnc2ccc(Nc3ccc(F)nc3)nn12 [Compound 510]
	100 to 2000	COc1ccc(Cc2nnc3n2N=C(c2ccccc2)CS3)cc1 [Compound 530]
	100 to 2000	C[C@@H](c1ccc(O)cc1)c1nnc2ccc(Nc3ccnn3C)nn12 [Compound 505]
	> 2000	Clc1cccc(Nc2ccc3nnc(Cn4nc(Cl)c5ccccc54)n3n2)c1 [Compound 486]
	> 2000	Clc1cccc(Nc2ccc3nnc(COc4ccc5nonc5c4)n3n2)c1 [Compound 472]
	100 to 2000	CS(=O)(=O)Nc1cccc(Cc2nnc3ccc(Nc4cccc(Cl)c4)nn23)c1 [Compound 403]
	> 2000	Clc1cccc(Nc2ccc3nnc(CSc4ccccc4)n3n2)c1 [Compound 387]
	> 2000	CC(=O)N[C@@H]1CCCC[C@H]1Nc1ccc2nnc([C@@H](C)c3ccc(O)cc3)n2n1 [Compound 450]
	100 to 2000	C[C@@H](c1ccc(O)cc1)c1nnc2ccc(Nc3cc(Cl)ccc3OCCN3CCCC3)nn12 [Compound 443]

Ki (10 μM polyGluTyr) [nM]	Ki [nM]	Structure (SMILES)
	> 2000	Clc1cccc(Nc2ccc3nnc(CNc4ccc5[nH]ccc5c4)n3n2)c1 [Compound 465]
	< 100	Clc1cccc(Nc2ccc3nnc(Cn4ccc5ncccc54)n3n2)c1 [Compound 418]
	> 2000	O=[N+]([O-])c1ncccc1OCc1nnc2ccc(Nc3cccc(Cl)c3)nn12 [Compound 408]
	> 2000	Nc1ccc(Cc2nnc3ccc(Nc4cccc(Cl)c4)nn23)cc1 [Compound 456]
	100 to 2000	COc1cccc(Cc2nnc3ccc(Nc4cccc(Cl)c4)nn23)c1 [Compound 439]
	> 2000	COCCC(=O)N[C@@H]1CCCC[C@@H]1Nc1ccc2nnc([C@@H](C)c3ccc(O)cc3)n2n1 [Compound 445]
	> 2000	Clc1cccc(Nc2ccc3nnc(CNc4cccc5[nH]ccc45)n3n2)c1 [Compound 464]
	100 to 2000	c1ccc(C2=Nn3c(Cc4ccc5c(c4)OCO5)nnc3SC2)cc1 [Compound 523]
	100 to 2000	O=C1COc2ccc(C3=Nn4c(Cc5ccc(O)cc5)nnc4SC3)cc2N1 [Compound 535]
	100 to 2000	N#Cc1ccc(Cc2nnc3ccc(Nc4cccc(Cl)c4)nn23)cc1 [Compound 474]
	< 100	Oc1ccc(C2(c3nnc4ccc(Nc5ccnc(Cl)c5)nn34)CC2)cc1 [Compound 520]
	< 100	Clc1cccc(Nc2ccc3nnc(CNc4cccc5ncccc45)n3n2)c1 [Compound 518]
	> 2000	Clc1cccc(Nc2ccc3nnc(Cn4cnc5ccccc54)n3n2)c1 [Compound 485]
	> 2000	CC(Cn1cnc2ccccc21)c1nnc2ccc(Nc3cccc(Cl)c3)nn12 (centres unmarked) [Compound 421]
	> 2000	CN(C)S(=O)(=O)Nc1cccc(Cc2nnc3ccc(Nc4cccc(Cl)c4)nn23)c1 [Compound 404]

More lines, now with the values behind:

Structure (SMILES)	Ki (10 μM polyGluTyr) [nM]	Ki [nM]
Oc1ccc(Cc2nnc3sc(Nc4ccc5nsnc5c4)nn23)cc1 [Compound 70]	> 2000	
COc1ccc(Cc2nnc3ccc(Nc4cccc(F)c4)nn23)cc1 [Compound 285]	< 100	
Oc1ccc(Cc2nnc3sc(Nc4ccccc4Cl)nn23)cc1Cl [Compound 67]	100 to 2000	
c1ccc([C@@H]2C[C@H]2c2nn3c(Cc4ccc5c(c4)OCO5)nnc3s2)cc1 [Compound 47]	> 2000	
C[C@@H](c1ccc(O)cc1)c1nnc2sc(Nc3ccc(Cl)cc3)nn12 [Compound 117]	< 100	
COc1ccc(Cc2nnc3ccc(Nc4cccc(C)c4)nn23)cc1 [Compound 229]	100 to 2000	
CC(c1ccc(O)cc1)c1nnc2sc(Nc3cccnc3)nn12 (centres unmarked) [Compound 82]	< 100	
CNC(=O)c1cccc(Nc2ccc3nnc(Cc4ccc(O)cc4)n3n2)c1 [Compound 232]	100 to 2000	
CC1CC(Nc2ccc3nnc(Cc4ccc(O)cc4)n3n2)CC(C)(C)C1 (centres unmarked) [Compound 370]		< 100
Oc1ccc(Cc2nnc3ccc(Cl)nn23)cc1 [Compound 174]	100 to 2000	
Oc1ccc(CCc2nnc3sc(Nc4cccc(Cl)c4)nn23)cc1 [Compound 94]	> 2000	
COc1cccc(N2CCN(c3ccc4nnc(Cc5ccc(O)cc5)n4n3)CC2)c1 [Compound 194]	100 to 2000	
Oc1cccc(CCc2nnc3sc(Nc4cc(F)cc(F)c4)nn23)c1 [Compound 120]	> 2000	
Clc1cccc(Nc2ccc3nnc(Cc4ccccc4)n3n2)c1 [Compound 315]		> 2000
Oc1cccc(CCc2nnc3sc(Nc4cccc(Cl)c4)nn23)c1 [Compound 92]	> 2000	
N#Cc1cccc(Nc2ccc3nnc(Cc4ccc5c(c4)OCO5)n3n2)c1 [Compound 221]	< 100	
CNC(=O)c1cccc(Nc2ccc3nnc(Cc4ccc(O)c(F)c4)n3n2)c1 [Compound 233]	100 to 2000	
CC(c1ccc(O)cc1)c1nnc2sc(Nc3cccc(F)c3F)nn12 (centres unmarked) [Compound 101]	< 100	
Oc1ccc(Cc2nnc3ccc(Nc4cccc(C(F)(F)F)c4)nn23)cc1Cl [Compound 224]	< 100	
CC(O)c1cccc(Nc2ccc3nnc(Cc4ccc(O)c(Cl)c4)n3n2)c1 (centres unmarked) [Compound 299]		100 to 2000

Structure (SMILES)	Ki (10 μM polyGluTyr) [nM]	Ki [nM]
OC[C@H](Cc1ccccc1)Nc1ccc2nnc(Cc3ccc(O)cc3)n2n1 [Compound 191]	> 2000	
Clc1cccc(Nc2ccc3nnc(COc4cccc(Cl)n4)n3n2)c1 [Compound 376]		> 2000
CC(C)Oc1cccc(Nc2ccc3nnc(Cc4ccc(O)cc4)n3n2)c1 [Compound 181]	< 100	
COc1cc(NCc2nnc3ccc(Nc4cccc(Cl)c4)nn23)c(C(C)=O)cc1OC [Compound 331]		> 2000
Fc1cccc(Nc2ccc3nnc(Cc4ccc5c(c4)OCO5)n3n2)c1 [Compound 286]	< 100	
COc1ccccc1Nc1nn2c(Cc3ccc(O)c(Cl)c3)nnc2s1 [Compound 31]	100 to 2000	
OCCCCNc1ccc2nnc(Cc3ccc(O)cc3)n2n1 [Compound 198]	100 to 2000	
COc1ccc(NC(=O)Nc2nn3c(Cc4ccc(O)cc4)nnc3s2)cc1 [Compound 115]	> 2000	
Cc1cccc(Nc2ccc3nnc(Cc4ccc(O)c(Cl)c4)n3n2)c1 [Compound 228]	100 to 2000	
c1ccc(-c2ccc3nnc(CNc4cccnc4)n3n2)cc1 [Compound 208]	> 2000	
C[C@H](c1ccc(O)cc1)c1nnc2sc(Nc3ccc(Cl)cc3)nn12 [Compound 118]	100 to 2000	
Cc1cc(C)cc(Nc2ccc3nnc(Cc4ccc(O)c(Cl)c4)n3n2)c1 [Compound 296]		< 100
CC(=O)Nc1cccc(NCc2nnc3ccc(-c4ccccc4)nn23)c1 [Compound 210]	> 2000	
FC(F)(F)c1cccc(Nc2ccc3nnc(Cc4ccc5c(c4)OCO5)n3n2)c1 [Compound 226]	100 to 2000	
COc1ccccc1Nc1nn2c(Cc3ccc(O)cc3)nnc2s1 [Compound 29]	100 to 2000	
C[C@@H](c1ccc(OC(=O)[C@@H](C)N)cc1)c1nnc2sc(Nc3cccc(F)c3)nn12 [Compound 166]	< 100	
Fc1cccc(OCc2nnc3ccc(Nc4cccc(Cl)c4)nn23)c1 [Compound 377]		> 2000
Cc1ccc(Cl)cc1Nc1ccc2nnc(Cc3ccc(O)cc3)n2n1 [Compound 358]		< 100
Fc1c(Cl)cccc1Nc1nn2c(Cc3ccc4c(c3)OCO4)nnc2s1 [Compound 126]	100 to 2000	
c1ccc(-c2ccc3nnc(CNc4ccncc4)n3n2)cc1 [Compound 211]	> 2000	

Structure (SMILES)	Ki (10 μM polyGluTyr) [nM]	Ki [nM]
COc1ccc(Cc2nnc3sc(Cc4ccccc4)nn23)cc1 [Compound 21]	> 2000	
O=c1[nH]c2ccc(Nc3ccc4nnc(Cc5ccc(O)cc5)n4n3)cc2[nH]1 [Compound 216]	< 100	
CNC(=O)c1cccc(Nc2ccc3nnc(Cc4ccc(O)c(Cl)c4)n3n2)c1 [Compound 234]	100 to 2000	
Oc1ccc(Cc2nnc3ccc(Nc4cccc(C(F)(F)F)c4)nn23)cc1 [Compound 223]	< 100	
CC(c1ccc(O)cc1)c1nnc2sc(C(N)=O)nn12 (centres unmarked) [Compound 88]	> 2000	
Oc1ccc(Cc2nnc3ccc(NCCCn4ccnc4)nn23)cc1 [Compound 180]	100 to 2000	
Cc1cc(F)ccc1Nc1nn2c(Cc3ccc(O)cc3)nnc2s1 [Compound 76]	100 to 2000	
C[C@H](CO)Nc1ccc2nnc(Cc3ccc(O)cc3)n2n1 [Compound 303]		100 to 2000
CN(c1ccc2nnc(Cc3ccc(O)cc3)n2n1)C1CCCCC1 [Compound 196]	100 to 2000	
Fc1ccc(OCc2nnc3ccc(Nc4cccc(Cl)c4)nn23)cc1F [Compound 378]		> 2000
Oc1ccc(Cc2nnc3sc(NC4CCCCC4)nn23)cc1 [Compound 86]	100 to 2000	
O=C(Cc1nnc2ccc(Nc3cccc(Cl)c3)nn12)c1cccnc1 [Compound 316]		> 2000
Clc1cccc(Nc2ccc3nnc(CNc4ccncc4)n3n2)c1 [Compound 386]		> 2000
CNC(=O)c1cccc(Nc2ccc3nnc(Cc4ccc(OC)cc4)n3n2)c1 [Compound 235]	100 to 2000	
COc1ccc(Cc2nnc3sc(-c4cccs4)nn23)cc1 [Compound 22]	100 to 2000	
CNC(=O)c1cccc(Nc2ccc3nnc(Cc4ccc5c(c4)OCO5)n3n2)c1 [Compound 236]	100 to 2000	
CCC(c1ccc(OC)cc1)c1nnc2ccc(Nc3cccc(Cl)c3)nn12 (centres unmarked) [Compound 357]		< 100
Clc1cccc(Nc2ccc3nnc(CCc4cccnc4)n3n2)c1 [Compound 368]		> 2000
